Source: EP3154958B1, “PHOSPHATIDYLINOSITOL 3-KINASE INHIBITORS” (Gilead Sciences, Inc., priority 2014, dated 2015)
Like-named read-outs stand apart in the source and are kept apart here.

What was measured:
Assay type in all cases: biochemical
PI3Kβ = target: T1, PI3Kβ (Homo sapiens, UniProt P42338); experiment: TR-FRET enzymatic activity assay, PI3Kβ
T1 construct: made in house
Procedure, shortened: (§1)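 Enzymatic activity against the PI3K isoforms was measured using a time-resolved fluorescence resonance energy transfer (TR-FRET) assay.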

PI3Kγ = target: T2, PI3Kγ (Homo sapiens, UniProt P48736); experiment: TR-FRET enzymatic activity assay, PI3Kγ
T2 construct: made in house
T2 sequence (P48736 whole entry): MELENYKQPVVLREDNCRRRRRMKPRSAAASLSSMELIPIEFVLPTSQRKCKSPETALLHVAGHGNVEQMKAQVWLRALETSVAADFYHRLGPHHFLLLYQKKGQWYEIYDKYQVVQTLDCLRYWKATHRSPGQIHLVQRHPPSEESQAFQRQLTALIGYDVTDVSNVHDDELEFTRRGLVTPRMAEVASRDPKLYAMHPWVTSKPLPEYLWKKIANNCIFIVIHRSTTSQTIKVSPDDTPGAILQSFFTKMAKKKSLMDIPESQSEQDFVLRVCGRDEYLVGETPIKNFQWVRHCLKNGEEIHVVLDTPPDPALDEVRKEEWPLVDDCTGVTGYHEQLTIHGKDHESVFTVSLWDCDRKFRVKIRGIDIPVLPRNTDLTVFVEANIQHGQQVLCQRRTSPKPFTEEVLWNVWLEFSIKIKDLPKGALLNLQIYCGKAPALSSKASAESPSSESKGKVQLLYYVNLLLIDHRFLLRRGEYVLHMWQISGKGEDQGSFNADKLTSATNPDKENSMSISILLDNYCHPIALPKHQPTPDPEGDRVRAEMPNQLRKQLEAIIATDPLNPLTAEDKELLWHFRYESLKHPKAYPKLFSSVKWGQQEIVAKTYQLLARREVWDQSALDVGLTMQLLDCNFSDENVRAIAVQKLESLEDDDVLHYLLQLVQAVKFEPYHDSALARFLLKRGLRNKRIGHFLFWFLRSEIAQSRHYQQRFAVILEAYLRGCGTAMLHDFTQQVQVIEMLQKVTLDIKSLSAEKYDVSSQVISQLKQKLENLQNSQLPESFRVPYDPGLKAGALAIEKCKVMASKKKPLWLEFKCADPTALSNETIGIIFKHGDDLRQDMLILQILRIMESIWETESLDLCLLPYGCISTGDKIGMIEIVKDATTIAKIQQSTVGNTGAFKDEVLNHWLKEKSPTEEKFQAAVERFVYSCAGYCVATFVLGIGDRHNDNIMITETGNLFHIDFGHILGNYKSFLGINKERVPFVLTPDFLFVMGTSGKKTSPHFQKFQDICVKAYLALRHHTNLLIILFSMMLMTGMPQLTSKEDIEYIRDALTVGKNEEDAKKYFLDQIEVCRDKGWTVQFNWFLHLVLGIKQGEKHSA
T2 sequence (Q8WYR1 whole entry partner): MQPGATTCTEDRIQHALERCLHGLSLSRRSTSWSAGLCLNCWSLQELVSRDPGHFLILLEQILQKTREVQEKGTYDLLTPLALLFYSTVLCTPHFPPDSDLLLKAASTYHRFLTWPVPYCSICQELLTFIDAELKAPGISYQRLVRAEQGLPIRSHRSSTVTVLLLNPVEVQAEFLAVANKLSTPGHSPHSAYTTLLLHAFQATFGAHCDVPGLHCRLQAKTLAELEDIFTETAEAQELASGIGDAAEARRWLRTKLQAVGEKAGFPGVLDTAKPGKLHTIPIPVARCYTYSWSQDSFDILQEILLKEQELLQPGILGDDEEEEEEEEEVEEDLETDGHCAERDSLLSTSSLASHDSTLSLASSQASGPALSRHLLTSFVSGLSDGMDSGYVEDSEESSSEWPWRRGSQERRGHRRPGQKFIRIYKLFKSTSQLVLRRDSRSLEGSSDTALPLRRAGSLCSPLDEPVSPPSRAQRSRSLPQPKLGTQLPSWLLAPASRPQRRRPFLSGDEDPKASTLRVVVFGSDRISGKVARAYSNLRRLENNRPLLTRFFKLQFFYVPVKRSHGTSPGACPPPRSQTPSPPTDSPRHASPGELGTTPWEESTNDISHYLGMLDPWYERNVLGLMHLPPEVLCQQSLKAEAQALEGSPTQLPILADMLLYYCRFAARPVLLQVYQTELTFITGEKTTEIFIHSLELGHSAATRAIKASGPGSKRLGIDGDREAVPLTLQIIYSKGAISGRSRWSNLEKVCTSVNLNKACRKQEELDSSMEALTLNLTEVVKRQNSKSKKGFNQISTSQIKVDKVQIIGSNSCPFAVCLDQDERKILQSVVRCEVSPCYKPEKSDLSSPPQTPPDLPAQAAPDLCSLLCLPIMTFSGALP
Procedure, shortened: as §1

PI3Kδ = target: T3, PI3Kδ (Homo sapiens, UniProt O00329); experiment: TR-FRET enzymatic activity assay, PI3Kδ
T3 construct: made in house
T3 sequence (O00329 whole entry): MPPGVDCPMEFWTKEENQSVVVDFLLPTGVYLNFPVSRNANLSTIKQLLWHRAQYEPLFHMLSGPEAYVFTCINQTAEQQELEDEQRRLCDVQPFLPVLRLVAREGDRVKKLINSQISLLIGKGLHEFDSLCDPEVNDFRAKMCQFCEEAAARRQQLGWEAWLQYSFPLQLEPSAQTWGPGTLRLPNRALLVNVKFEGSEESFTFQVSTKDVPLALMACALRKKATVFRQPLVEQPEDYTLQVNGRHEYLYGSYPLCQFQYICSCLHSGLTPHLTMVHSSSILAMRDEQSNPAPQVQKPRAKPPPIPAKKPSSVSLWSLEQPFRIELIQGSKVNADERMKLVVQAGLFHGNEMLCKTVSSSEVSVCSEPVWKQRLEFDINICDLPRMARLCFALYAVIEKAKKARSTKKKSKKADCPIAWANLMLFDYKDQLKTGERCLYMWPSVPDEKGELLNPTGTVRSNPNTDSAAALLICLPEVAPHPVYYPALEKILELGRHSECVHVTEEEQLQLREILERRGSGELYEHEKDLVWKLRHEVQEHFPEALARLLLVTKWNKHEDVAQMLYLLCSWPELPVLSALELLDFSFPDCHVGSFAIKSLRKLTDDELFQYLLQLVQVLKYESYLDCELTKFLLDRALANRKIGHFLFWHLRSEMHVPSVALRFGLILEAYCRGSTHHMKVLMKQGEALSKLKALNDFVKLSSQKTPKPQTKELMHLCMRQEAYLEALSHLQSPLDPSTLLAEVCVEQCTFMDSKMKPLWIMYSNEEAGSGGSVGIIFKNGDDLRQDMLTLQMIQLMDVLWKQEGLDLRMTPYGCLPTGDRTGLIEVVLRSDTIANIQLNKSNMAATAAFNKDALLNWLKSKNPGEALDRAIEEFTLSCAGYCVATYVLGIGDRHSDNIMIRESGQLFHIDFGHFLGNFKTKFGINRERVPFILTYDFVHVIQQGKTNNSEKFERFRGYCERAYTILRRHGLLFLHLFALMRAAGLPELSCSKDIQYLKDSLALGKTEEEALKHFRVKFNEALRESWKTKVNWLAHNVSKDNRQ
T3 sequence (P27986 whole entry partner): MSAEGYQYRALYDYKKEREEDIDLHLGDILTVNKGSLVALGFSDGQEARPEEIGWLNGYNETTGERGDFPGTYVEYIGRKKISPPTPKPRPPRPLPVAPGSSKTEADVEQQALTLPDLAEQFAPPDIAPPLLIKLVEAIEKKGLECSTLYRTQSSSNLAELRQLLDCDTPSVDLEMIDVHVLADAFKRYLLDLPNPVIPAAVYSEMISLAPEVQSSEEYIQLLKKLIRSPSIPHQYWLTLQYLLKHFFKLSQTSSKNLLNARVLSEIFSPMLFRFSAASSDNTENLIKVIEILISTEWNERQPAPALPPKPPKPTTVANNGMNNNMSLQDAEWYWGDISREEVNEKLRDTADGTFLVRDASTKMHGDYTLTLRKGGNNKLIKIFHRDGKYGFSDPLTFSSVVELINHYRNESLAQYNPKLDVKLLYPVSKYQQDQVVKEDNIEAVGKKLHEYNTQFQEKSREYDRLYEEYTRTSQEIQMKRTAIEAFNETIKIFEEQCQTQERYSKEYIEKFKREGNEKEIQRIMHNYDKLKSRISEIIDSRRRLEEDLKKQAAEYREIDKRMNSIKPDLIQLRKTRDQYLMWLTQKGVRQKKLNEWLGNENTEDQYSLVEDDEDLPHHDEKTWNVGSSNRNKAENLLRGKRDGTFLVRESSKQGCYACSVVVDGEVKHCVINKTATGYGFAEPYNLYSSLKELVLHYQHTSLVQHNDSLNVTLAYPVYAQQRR
Procedure, shortened: as §1

[1] = recombinant heterodimeric PI3Kβ 25-50 pM, 2× Km ATP, 30 minutes at 25°C
[2] = recombinant heterodimeric PI3Kγ 2 nM, 2× Km ATP, 30 minutes at 25°C
[3] = recombinant heterodimeric PI3Kδ 25-50 pM, 2× Km ATP, 30 minutes at 25°C

T1 sequence (P42338 whole entry): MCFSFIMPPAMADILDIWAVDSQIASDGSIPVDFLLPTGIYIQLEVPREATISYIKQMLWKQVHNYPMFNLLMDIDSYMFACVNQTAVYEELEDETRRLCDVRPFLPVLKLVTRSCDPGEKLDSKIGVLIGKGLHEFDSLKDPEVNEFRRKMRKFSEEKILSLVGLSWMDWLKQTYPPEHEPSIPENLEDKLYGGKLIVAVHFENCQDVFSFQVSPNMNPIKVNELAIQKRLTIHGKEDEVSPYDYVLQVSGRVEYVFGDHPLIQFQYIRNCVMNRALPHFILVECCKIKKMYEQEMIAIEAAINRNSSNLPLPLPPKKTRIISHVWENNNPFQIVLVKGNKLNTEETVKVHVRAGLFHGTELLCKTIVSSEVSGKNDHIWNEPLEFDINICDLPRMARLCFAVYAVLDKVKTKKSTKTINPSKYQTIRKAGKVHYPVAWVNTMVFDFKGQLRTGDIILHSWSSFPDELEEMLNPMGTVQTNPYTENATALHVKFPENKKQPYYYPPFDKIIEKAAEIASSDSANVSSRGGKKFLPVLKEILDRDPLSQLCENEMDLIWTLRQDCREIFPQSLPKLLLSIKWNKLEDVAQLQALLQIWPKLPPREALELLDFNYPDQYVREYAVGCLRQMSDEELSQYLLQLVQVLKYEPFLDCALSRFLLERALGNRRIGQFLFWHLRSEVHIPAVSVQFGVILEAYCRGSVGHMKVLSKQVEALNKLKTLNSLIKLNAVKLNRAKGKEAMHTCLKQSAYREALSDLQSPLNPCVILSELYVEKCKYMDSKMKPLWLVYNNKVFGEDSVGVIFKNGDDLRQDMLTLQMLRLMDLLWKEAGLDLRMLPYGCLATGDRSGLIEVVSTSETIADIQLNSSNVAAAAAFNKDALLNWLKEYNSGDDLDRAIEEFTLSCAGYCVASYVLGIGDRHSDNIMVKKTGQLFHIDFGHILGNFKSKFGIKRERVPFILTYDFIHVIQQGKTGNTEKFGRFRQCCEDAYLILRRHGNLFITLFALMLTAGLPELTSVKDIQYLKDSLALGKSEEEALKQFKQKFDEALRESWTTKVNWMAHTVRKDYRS
T1 sequence (P27986 whole entry partner): as the sequence (P27986 whole entry partner) above

SMILES	IC50 (PI3Kβ; [1])	IC50 (PI3Kγ; [2])	IC50 (PI3Kδ; [3])	IC50 (PI3Kβ)	IC50 (PI3Kγ)	IC50 (PI3Kδ)
Cc1nc(N)nc(N[C@@H](C)c2nc3cccc(Cl)c3c(=O)n2C2CCN(CC(F)(F)F)CC2)c1C#N [Compound 106, (S)-2-amino-4-((1-(5-chloro-4-oxo-3-(1-(2,2,2-trifluoroethyl)piperidin-4-yl)-3,4-dihydroquinazolin-2-yl)ethyl)amino)-6-methylpyrimidine-5-carbonitrile]	260 nM	710 nM	11 nM	–	–	–
N#Cc1c(N)nc(N)nc1N[C@H](c1nc2cccc(Cl)c2c(=O)n1C1[C@H]2CNC[C@@H]12)C1CC1 (stereo in doubt) [Compound 15, 4-(((1S)-(3-((1R,5S)-3-azabicyclo[3.1.0]hexan-6-yl)-5-chloro-4-oxo-3,4-dihydroquinazolin-2-yl)(cyclopropyl)methyl)amino)-2,6-diaminopyrimidine-5-carbonitrile]	–	–	–	2 nM	650 nM	0.6 nM
O=c1c2c(Cl)cccc2nc([C@@H]2CCCN2c2ncnn3ccnc23)n1N1CCNCC1 [Compound 133, (S)-5-chloro-2-(1-(imidazo[2,1-f][1,2,4]triazin-4-yl)pyrrolidin-2-yl)-3-(piperazin-1-yl)quinazolin-4(3H)-one]	900 nM	> 10000 nM	75 nM	–	–	–
C[C@H](Nc1ncnc(N)c1C#Cc1ccc(F)cn1)c1nc2cccc(Cl)c2c(=O)n1C1CNC1 [Compound 132, (S)-2-(1-((6-amino-5-((5-fluoropyridin-2-yl)ethynyl)pyrimidin-4-yl)amino)ethyl)-3-(azetidin-3-yl)-5-chloroquinazolin-4(3H)-one]	1000 nM	> 10000 nM	250 nM	–	–	–
C[C@H](Nc1nc(N)nc(Cl)c1C#N)c1nc2cccc(Cl)c2c(=O)n1N1CCN(CC(F)(F)F)CC1 [Compound 110, (S)-2-amino-4-chloro-6-((1-(5-chloro-4-oxo-3-(4-(2,2,2-trifluoroethyl)piperazin-1-yl)-3,4-dihydroquinazolin-2-yl)ethyl)amino)pyrimidine-5-carbonitrile]	1400 nM	2800 nM	41 nM	–	–	–
O=c1c2c(F)ccc(F)c2nc([C@@H](Nc2ncnn3ccnc23)C2CC2)n1N1CCNCC1 [Compound 41, (S)-2-(cyclopropyl(imidazo[2,1-f][1,2,4]triazin-4-ylamino)methyl)-5,8-difluoro-3 - (piperazin-1-yl)quinazolin-4(3H)-one]	210 nM	> 10000 nM	24 nM	–	–	–
C[C@H](Nc1nc(N)nc(N)c1C#N)c1nc2cccc(Cl)c2c(=O)n1C1CCN(CC(F)(F)F)C1 (stereo partly drawn) [Compound 119, 2,4-diamino-6-(((1S)-1-(5-chloro-4-oxo-3-(1-(2,2,2-trifluoroethyl)pyrrolidin-3-yl)-3,4-dihydroquinazolin-2-yl)ethyl)amino)pyrimidine-5-carbonitrile]	360 nM	2900 nM	14 nM	–	–	–
C[C@H](Nc1ncnc(N)c1C#N)c1nc2cccc(Cl)c2c(=O)n1C1CCN(CC(F)(F)F)CC1 [Compound 103, (S)-4-amino-6-((1-(5-chloro-4-oxo-3-(1-(2,2,2-trifluoroethyl)piperidin-4-yl)-3,4-dihydroquinazolin-2-yl)ethyl)amino)pyrimidine-5-carbonitrile]	2200 nM	> 10000 nM	10 nM	–	–	–
C[C@H](Nc1nc(N)nc(N)c1Cl)c1nc2cccc(Cl)c2c(=O)n1N1CCN(CC(F)F)CC1 [Compound 112, (S)-5-chloro-2-(1-((2,6-diamino-5-chloropyrimidin-4-yl)amino)ethyl)-3-(4-(2,2-difluoroethyl)piperazin-1-yl)quinazolin-4(3H)-one]	7800 nM	> 10000 nM	280 nM	–	–	–
C[C@H](Nc1ncnc(N)c1C#N)c1nc2cccc(Cl)c2c(=O)n1N1CCC(N)CC1 [Compound 131, (S)-4-amino-6-((1-(3-(4-aminopiperidin-1-yl)-5-chloro-4-oxo-3,4-dihydroquinazolin-2-yl)ethyl)amino)pyrimidine-5-carbonitrile]	450 nM	> 10000 nM	6 nM	–	–	–
C[C@H](Nc1nc(N)nc(Cl)c1C#N)c1nc2cccc(Cl)c2c(=O)n1N1CCN(CC(F)F)CC1 [Compound 113, (S)-2-amino-4-chloro-6-((1-(5-chloro-3-(4-(2,2-difluoroethyl)piperazin-1-yl)-4-oxo-3,4-dihydroquinazolin-2-yl)ethyl)amino)pyrimidine-5-carbonitrile]	600 nM	1300 nM	42 nM	–	–	–

The remaining compounds from weak to strong by IC50 (PI3Kβ; [1]), led by results:

IC50 (PI3Kβ; [1])	IC50 (PI3Kγ; [2])	IC50 (PI3Kδ; [3])	IC50 (PI3Kβ)	IC50 (PI3Kγ)	IC50 (PI3Kδ)	SMILES
96 nM	2000 nM	38 nM	–	–	–	CC[C@H](Nc1nc(N)nc(N)c1C#N)c1nc2c(F)ccc(Cl)c2c(=O)n1N1CCN(Cc2ccccc2)CC1 [Compound 95, (S)-2,4-diamino-6-((1-(3-(4-benzylpiperazin-1-yl)-5-chloro-8-fluoro-4-oxo-3,4-dihydroquinazolin-2-yl)propyl)amino)pyrimidine-5-carbonitrile]
94 nM	> 10000 nM	9 nM	–	–	–	C[C@H](Nc1ncnn2ccnc12)c1nc2cccc(Cl)c2c(=O)n1N1CCCNCC1 [Compound 64, (S)-5-chloro-3-(1,4-diazepan-1-yl)-2-(1-(imidazo[2,1-f][1,2,4]triazin-4-ylamino)ethyl)quinazolin-4(3H)-one]
83 nM	> 10000 nM	3 nM	–	–	–	C[C@H](Nc1ncnc(N)c1C#N)c1nc2cccc(Cl)c2c(=O)n1C1CCNCC1 [Compound 86, (S)-4-amino-6-((1-(5-chloro-4-oxo-3-(piperidin-4-yl)-3,4-dihydroquinazolin-2-yl)ethyl)amino)pyrimidine-5-carbonitrile]
78 nM	> 10000 nM	19 nM	–	–	–	C[C@H](Nc1nc(N)nc(N)c1C#N)c1nc2cccc(Cl)c2c(=O)n1[C@@H]1CCNC1 [Compound 31, 2,4-diamino-6-(((S)-1-(5-chloro-4-oxo-3-((R)-pyrrolidin-3-yl)-3,4-dihydroquinazolin-2-yl)ethyl)amino)pyrimidine-5-carbonitrile]
62 nM	> 10000 nM	1 nM	–	–	–	C[C@H](Nc1ncnc(N)c1C#N)c1nc2cccc(Cl)c2c(=O)n1N1CCC(N)C1 (stereo partly drawn) [Compound 130, 4-amino-6-(((1S)-1-(3-(3-aminopyrrolidin-1-yl)-5-chloro-4-oxo-3,4-dihydroquinazolin-2-yl)ethyl)amino)pyrimidine-5-carbonitrile]
57 nM	> 10000 nM	2 nM	–	–	–	N#Cc1c(N)ncnc1N[C@H](c1nc2cccc(Cl)c2c(=O)n1N1CCNCC1)C1CC1 [Compound 102, (S)-4-amino-6-(((5-chloro-4-oxo-3-(piperazin-1-yl)-3,4-dihydroquinazolin-2-yl)(cyclopropyl)methyl)amino)pyrimidine-5-carbonitrile]
47 nM	229 nM	5 nM	–	–	–	C[C@H](Nc1nc(N)nc(N)c1C#N)c1nc2cccc(Cl)c2c(=O)n1[C@@H]1CCOC1 [Compound 137, 2,4-diamino-6-(((S)-1-(5-chloro-4-oxo-3-((R)-tetrahydrofuran-3-yl)-3,4-dihydroquinazolin-2-yl)ethyl)amino)pyrimidine-5-carbonitrile]
25 nM	> 10000 nM	2 nM	–	–	–	C[C@H](Nc1ncnc(N)c1C#N)c1nc2c(Cl)ccc(Cl)c2c(=O)n1N1CCNCC1 [Compound 76, (S)-4-amino-6-((1-(5,8-dichloro-4-oxo-3-(piperazin-1-yl)-3,4-dihydroquinazolin-2-yl)ethyl)amino)pyrimidine-5-carbonitrile]
25 nM	> 10000 nM	4 nM	–	–	–	CC[C@H](Nc1ncnc2scnc12)c1nc2cccc(Cl)c2c(=O)n1N1CCNCC1 [Compound 80, (S)-5-chloro-3-(piperazin-1-yl)-2-(1-(thiazolo[5,4-d]pyrimidin-7-ylamino)propyl)quinazolin-4(3H)-one]
18 nM	> 10000 nM	2 nM	–	–	–	O=c1c2c(Cl)cccc2nc([C@@H](Nc2ncnc3scnc23)C2CC2)n1N1CCNCC1 [Compound 78, (S)-5-chloro-2-(cyclopropyl(thiazolo[5,4-d]pyrimidin-7-ylamino)methyl)-3-(piperazin-1-yl)quinazolin-4(3H)-one]
6 nM	5700 nM	56 nM	–	–	–	C[C@H](NC(=O)c1c(N)nn2cccnc12)c1nc2cccc(Cl)c2c(=O)n1N1CCNCC1 [Compound 36, (S)-2-amino-N-(1-(5-chloro-4-oxo-3-(piperazin-1-yl)-3,4-dihydroquinazolin-2-yl)ethyl)pyrazolo[1,5-a]pyrimidine-3-carboxamide]
3 nM	2800 nM	4 nM	–	–	–	C[C@H](Nc1nc(N)nc(N)c1C#N)c1nc2c(F)ccc(Cl)c2c(=O)n1C1[C@H]2CNC[C@@H]12 (stereo in doubt) [Compound 17, 4-(((1S)-1-(3-((1R,5S)-3-azabicyclo[3.1.0]hexan-6-yl)-5-chloro-8-fluoro-4-oxo-3,4-dihydroquinazolin-2-yl)ethyl)amino)-2,6-diaminopyrimidine-5-carbonitrile]
3 nM	> 10000 nM	5 nM	–	–	–	CC[C@H](Nc1nc(N)nc(C)c1C#N)c1nc2cccc(Cl)c2c(=O)n1C1CCNCC1 [Compound 23, (S)-2-amino-4-((1-(5-chloro-4-oxo-3-(piperidin-4-yl)-3,4-dihydroquinazolin-2-yl)propyl)amino)-6-methylpyrimidine-5-carbonitrile]
2 nM	> 10000 nM	3 nM	–	–	–	Cc1nc(N)nc(N[C@@H](C)c2nc3cccc(Cl)c3c(=O)n2C2CCNCC2)c1C#N [Compound 24, (S)-2-amino-4-((1-(5-chloro-4-oxo-3-(piperidin-4-yl)-3,4-dihydroquinazolin-2-yl)ethyl)amino)-6-methylpyrimidine-5-carbonitrile]
